Data on one compound can be found in article PMC5198511 (Molecular Pharmacology, 2017).

By logD is commonly meant lipophilicity at a set pH, counting ionised and neutral species. Read a low logD as lower lipophilicity.

Molecules are shown by their SMILES.

One series is described as follows: LogD7.4 measurement. In kind it is physicochemical. As to conditions: 1-octanol/phosphate buffer, pH 7.4.
Series [1] is described as follows: Immobilized artificial membrane chromatography. In kind it is physicochemical. Particulars: IAM chromatography, pH 7.4.

As to `CCNC(=O)[C@H]1O[C@@H](n2cnc3c(N)nc(NCCc4ccc(CCC(=O)O)cc4)nc32)[C@H](O)[C@@H]1O` [Compound 3ac], the log distribution coefficient (logD) in the series “LogD7.4 measurement” was below -0.8. Besides, the “log KIAM” value in series [1] is reported as −0.09.
